These are literature values, as cited in EP2322149A1, “Methods and compositions for the treatment of ischemia” (Universidad del Pais Vasco, priority 2009, dated 2011).

As usually defined, the IC50 is the midpoint of a concentration-inhibition curve.

One data set addresses T1, P2X1 (Homo sapiens, UniProt P51575).
T1 sequence (P51575 1-399): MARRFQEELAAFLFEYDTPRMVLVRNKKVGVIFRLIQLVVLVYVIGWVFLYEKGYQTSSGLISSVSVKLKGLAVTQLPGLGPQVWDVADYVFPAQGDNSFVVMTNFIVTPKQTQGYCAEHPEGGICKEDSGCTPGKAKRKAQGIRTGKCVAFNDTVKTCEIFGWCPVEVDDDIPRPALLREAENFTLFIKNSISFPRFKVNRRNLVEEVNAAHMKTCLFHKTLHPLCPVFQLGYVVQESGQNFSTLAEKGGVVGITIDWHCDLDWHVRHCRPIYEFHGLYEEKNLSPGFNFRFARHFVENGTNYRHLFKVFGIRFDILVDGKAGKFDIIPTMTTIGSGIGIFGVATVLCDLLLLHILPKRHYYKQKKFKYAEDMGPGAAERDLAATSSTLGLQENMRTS
As to conditions: read-out: IC50 P2X1; cited from earlier work.

The target of the next data set is P2X5 (Homo sapiens, UniProt Q93086). As to conditions: cited from earlier work.
The next data set addresses P2X6 (Homo sapiens, UniProt O15547). As to conditions: read-out: IC50 P2X6; cited from earlier work.
In another data set the target is T2, P2X2 (Homo sapiens, UniProt Q9UBL9).
T2 sequence (Q9UBL9 1-471): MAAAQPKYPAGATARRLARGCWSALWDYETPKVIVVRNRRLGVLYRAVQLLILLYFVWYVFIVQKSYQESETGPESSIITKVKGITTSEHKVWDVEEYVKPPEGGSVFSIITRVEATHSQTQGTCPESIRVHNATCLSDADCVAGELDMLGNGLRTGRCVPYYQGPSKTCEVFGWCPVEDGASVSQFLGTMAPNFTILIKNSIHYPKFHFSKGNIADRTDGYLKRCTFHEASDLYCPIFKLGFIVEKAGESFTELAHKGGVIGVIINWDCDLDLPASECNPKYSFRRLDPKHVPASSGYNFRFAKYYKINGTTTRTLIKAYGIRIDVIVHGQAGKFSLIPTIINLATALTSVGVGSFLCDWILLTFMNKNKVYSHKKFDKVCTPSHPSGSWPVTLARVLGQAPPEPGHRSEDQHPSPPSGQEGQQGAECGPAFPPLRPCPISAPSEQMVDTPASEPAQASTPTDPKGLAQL
As to conditions: read-out: IC50 P2X2; cited from earlier work.

In a further data set the target is T3, P2X4 (Homo sapiens, UniProt Q99571).
T3 sequence (Q99571 1-388): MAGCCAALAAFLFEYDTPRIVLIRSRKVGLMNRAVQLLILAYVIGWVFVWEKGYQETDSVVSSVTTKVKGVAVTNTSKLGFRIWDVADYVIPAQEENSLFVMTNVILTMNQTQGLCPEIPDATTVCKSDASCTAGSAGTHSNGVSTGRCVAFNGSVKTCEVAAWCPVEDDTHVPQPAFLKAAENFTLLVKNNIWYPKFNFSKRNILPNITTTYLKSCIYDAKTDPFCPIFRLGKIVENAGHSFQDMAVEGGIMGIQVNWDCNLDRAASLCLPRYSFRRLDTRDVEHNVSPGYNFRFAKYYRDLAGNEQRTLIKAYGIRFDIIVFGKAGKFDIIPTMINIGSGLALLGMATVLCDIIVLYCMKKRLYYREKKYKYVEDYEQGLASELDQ
As to conditions: read-out: IC50 P2X4; cited from earlier work.

The target of the next data set is T4, P2X7 (Homo sapiens, UniProt Q99572).
T4 sequence (Q99572 1-595): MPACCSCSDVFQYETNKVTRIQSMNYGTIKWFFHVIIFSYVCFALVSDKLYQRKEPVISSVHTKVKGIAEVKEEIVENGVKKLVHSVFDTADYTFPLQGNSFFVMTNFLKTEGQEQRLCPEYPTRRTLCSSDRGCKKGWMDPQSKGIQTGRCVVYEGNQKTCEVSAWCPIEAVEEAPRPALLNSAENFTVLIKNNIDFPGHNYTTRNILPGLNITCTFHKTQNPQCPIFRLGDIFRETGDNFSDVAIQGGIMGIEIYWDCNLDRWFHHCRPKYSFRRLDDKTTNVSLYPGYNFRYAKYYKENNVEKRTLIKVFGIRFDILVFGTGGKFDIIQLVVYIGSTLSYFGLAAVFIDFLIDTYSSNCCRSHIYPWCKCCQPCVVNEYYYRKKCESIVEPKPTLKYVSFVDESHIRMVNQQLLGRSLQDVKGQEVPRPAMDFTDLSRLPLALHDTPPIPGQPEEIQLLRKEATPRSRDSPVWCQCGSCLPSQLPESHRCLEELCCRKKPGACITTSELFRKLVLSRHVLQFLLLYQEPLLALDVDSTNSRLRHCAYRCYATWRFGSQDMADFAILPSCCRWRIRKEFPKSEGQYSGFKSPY
As to conditions: cited from earlier work.

In a further data set the target is T5, P2X3 (Homo sapiens, UniProt P56373).
T5 sequence (P56373 1-397): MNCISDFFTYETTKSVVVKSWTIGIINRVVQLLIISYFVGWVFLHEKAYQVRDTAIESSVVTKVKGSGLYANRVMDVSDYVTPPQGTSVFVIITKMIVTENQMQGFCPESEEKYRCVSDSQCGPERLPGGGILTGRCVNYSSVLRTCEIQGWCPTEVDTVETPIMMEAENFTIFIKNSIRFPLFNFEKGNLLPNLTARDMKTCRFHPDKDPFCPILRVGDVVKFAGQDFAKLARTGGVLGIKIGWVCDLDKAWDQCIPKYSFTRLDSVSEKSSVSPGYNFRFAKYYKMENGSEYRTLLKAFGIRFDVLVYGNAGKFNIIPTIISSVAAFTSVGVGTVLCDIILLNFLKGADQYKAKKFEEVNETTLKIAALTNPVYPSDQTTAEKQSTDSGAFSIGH
As to conditions: read-out: IC50 P2X3; cited from earlier work.

Sequence of P2X6 (O15547 whole entry, species assumed): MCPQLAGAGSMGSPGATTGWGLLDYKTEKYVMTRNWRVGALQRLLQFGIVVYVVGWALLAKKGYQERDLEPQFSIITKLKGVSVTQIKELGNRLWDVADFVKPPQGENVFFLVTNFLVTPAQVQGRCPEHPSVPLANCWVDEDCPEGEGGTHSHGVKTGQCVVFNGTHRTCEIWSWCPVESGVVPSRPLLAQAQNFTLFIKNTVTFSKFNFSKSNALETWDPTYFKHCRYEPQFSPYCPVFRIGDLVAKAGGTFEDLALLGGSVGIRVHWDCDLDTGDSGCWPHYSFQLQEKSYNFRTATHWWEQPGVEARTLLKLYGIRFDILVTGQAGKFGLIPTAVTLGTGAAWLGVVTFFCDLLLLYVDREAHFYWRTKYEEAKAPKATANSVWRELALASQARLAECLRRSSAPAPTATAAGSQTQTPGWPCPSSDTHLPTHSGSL
Sequence of P2X5 (Q93086 whole entry, species assumed): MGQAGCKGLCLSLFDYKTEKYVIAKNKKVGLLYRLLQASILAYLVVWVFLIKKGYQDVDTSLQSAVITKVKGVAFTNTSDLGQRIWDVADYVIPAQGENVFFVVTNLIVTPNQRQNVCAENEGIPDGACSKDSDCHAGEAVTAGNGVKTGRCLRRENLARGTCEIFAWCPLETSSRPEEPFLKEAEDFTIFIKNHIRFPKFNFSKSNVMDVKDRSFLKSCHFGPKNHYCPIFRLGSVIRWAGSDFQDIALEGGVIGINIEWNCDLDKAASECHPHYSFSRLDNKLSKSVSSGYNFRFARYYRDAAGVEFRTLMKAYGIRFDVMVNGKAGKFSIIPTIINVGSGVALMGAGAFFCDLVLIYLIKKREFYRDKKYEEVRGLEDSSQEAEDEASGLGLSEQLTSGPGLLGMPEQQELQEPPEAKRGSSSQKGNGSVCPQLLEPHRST

Turning to `Cc1cc(-c2ccc(/N=N/c3ccc4c(S(=O)(=O)O)cc(S(=O)(=O)O)c(N)c4c3O)c(C)c2)ccc1/N=N/c1ccc2c(S(=O)(=O)O)cc(S(=O)(=O)O)c(N)c2c1O` [Evans Blue], the IC50 on P2X1 was 1400 µM; at P2X5 it was 1 to 400 µM; on P2X6, 1 to 400 µM; at P2X2 it was 1 to 400 µM; at P2X4 it was 1 to 400 µM; at P2X7 it was 1 to 400 µM. Besides, the IC50 at P2X3 is 1400 µM.
